Reference: patent US9133183B2, “Imidazolidinones and analogs exhibiting anti-cancer and anti-proliferative activities” (Deciphera Pharmaceuticals, LLC, priority 2013, dated 2015)
Where two headings read alike, the source gives them in different places.

How the values were obtained:
[1] = target: c-FMS kinase in THP-1 cells (Homo sapiens (Human), UniProt P07333); test: Phospho-FMS ELISA assay in THP-1 cells; format: cell-based; conditions: 4 h compound, M-CSF stimulation 5 min; read-out: pFMS inhibition in THP-1 cells
Chain of c-FMS kinase in THP-1 cells (P07333 20-972): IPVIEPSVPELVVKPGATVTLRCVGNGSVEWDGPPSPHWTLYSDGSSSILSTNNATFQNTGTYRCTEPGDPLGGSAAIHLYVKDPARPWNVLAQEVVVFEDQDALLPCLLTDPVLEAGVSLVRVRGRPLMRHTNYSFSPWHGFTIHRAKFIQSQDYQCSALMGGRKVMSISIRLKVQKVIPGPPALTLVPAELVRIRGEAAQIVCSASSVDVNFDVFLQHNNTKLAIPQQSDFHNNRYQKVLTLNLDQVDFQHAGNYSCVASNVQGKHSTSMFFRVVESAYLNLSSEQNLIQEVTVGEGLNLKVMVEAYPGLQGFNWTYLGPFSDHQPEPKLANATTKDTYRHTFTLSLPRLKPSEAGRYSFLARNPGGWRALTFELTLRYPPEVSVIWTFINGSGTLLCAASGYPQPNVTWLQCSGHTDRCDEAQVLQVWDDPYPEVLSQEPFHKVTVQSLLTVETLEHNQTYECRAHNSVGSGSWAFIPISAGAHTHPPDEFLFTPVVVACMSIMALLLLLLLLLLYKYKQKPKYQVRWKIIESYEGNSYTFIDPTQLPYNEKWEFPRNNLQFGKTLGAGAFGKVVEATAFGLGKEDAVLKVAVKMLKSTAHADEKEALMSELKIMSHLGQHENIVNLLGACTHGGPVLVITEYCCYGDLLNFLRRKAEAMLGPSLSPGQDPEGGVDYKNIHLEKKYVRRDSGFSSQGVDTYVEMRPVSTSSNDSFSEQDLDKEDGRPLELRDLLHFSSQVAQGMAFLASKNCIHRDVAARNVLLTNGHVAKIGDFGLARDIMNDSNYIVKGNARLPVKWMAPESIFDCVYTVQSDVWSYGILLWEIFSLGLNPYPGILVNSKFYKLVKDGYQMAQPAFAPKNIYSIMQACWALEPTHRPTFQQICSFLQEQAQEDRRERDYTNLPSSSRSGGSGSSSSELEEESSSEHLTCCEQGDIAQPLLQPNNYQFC
Method: THP-1 cells (catalog #TIB-202) were obtained from the ATCC. Briefly, cells were grown in RPMI 1640 supplemented with 10% characterized fetal bovine serum, 1% sodium pyruvate, 1% Penicillin-Streptomycin-Glutamine (PSG) and 55 uM 2-mercaptoethanol (Invitrogen, Carlsbad, Calif.) at 37 degrees Celsius, 5% CO2, 95% humidity. Cells were allowed to expand until reaching 70-95% confluency at which point they were subcultured or harvested for assay use.
A serial dilution of test compound was diluted 1:100 in assay medium (RPMI 1640 supplemented with 10% characterized fetal bovine serum) in a 96 well black clear bottom plate (Corning, Corning, N.Y.). In a separate 96 well black clear bottom plate, one hundred and fifty thousand THP-1 cells were added per well in 100 μL in assay medium. Fifty microliters of diluted compound was then added to the cells. Plates were incubated for 4 hours at 37 degrees Celsius, 5% CO2, 95% humidity. At the end of the incubation period, cells were stimulated with 50 μL of a 100 nM solution of recombinant human M-CSF (catalog #216-MC, R & D Systems, Minneapolis, Minn.) in assay medium and the plate was incubated for 5 minutes at 37 degrees Celsius, 5% CO2, 95% humidity. Lysates were prepared and used to perform the phospho-FMS ELISA as described by the manufacturer (catalog #DYC3268, R & D Systems, Minneapolis, Minn.). GraphPad Prism was used to calculate IC50 values obtained from data generated from the ELISA assay.

osteoclast precursors = test: Osteoclast tartrate-resistant acid phosphatase assay; format: cell-based; conditions: Osteoclast, 7-14 days, RANKL and M-CSF
[2] = target: unphosphorylated c-FMS kinase (uFMS, Seq. ID no. 1) (Homo sapiens (Human), UniProt P07333); test: uFMS kinase assay (ADP production coupled to pyruvate kinase/lactate dehydrogenase); format: biochemical
Chain of unphosphorylated c-FMS kinase (uFMS, Seq. ID no. 1) (P07333 538-972): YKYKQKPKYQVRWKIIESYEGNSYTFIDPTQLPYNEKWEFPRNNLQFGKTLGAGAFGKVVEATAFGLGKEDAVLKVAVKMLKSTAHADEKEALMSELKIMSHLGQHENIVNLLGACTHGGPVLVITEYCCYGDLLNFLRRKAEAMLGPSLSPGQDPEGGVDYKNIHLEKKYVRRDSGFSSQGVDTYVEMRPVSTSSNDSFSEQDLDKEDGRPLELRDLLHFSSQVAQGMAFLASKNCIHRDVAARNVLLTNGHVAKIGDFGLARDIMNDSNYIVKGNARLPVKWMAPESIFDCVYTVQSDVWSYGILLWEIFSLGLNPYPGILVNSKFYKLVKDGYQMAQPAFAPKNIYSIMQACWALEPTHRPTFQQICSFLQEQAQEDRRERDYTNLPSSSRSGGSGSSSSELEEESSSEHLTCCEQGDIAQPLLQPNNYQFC
Summary of the method: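 Unphosphorylated FMS (10 nM) with polyE4Y 1 mg/mL and 500 μM ATP in 90 mM Tris pH 7.5, 10 mM MgCl2, 0.2% octyl-glucoside, 1% DMSO. ADP formation was coupled via pyruvate kinase/LDH to NADH oxidation, followed at A340 for 4 h at 30° C.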

[3] = target: unphosphorylated c-KIT kinase (uKIT, Seq. ID no. 2) (Homo sapiens (Human), UniProt P10721); test: uKit kinase assay (coupled pyruvate kinase/lactate dehydrogenase); format: biochemical; conditions: enzymatic assay, ATP 2000 μM
Chain of unphosphorylated c-KIT kinase (uKIT, Seq. ID no. 2) (P10721 other isoform, or with tags, fused parts or gaps): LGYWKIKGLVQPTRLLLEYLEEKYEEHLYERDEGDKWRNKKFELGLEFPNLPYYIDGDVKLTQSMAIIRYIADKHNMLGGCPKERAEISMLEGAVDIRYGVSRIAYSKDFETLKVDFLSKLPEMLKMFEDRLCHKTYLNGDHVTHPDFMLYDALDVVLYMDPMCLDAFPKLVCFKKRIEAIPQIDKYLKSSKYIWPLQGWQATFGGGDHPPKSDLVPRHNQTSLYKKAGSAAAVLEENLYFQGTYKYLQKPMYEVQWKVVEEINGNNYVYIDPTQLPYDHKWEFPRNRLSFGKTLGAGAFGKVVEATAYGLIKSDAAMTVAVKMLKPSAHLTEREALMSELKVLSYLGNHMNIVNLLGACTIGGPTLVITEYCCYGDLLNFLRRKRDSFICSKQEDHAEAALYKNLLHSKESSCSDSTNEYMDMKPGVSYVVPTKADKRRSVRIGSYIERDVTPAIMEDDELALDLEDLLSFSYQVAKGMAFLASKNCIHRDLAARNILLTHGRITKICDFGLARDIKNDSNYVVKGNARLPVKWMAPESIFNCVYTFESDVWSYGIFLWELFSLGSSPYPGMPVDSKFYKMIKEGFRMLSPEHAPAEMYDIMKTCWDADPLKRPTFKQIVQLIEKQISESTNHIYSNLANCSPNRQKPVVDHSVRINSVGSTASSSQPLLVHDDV
Summary of the method: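 Unphosphorylated KIT (12 nM, N-terminal GST fusion) was run with 1 mg/mL polyE4Y, 2000 μM ATP and 10 mM MgCl2 in Tris buffer (pH 7.5, 0.2% octyl-glucoside, 1% DMSO). ADP was coupled via PK/LDH, with NADH loss tracked at A340 for 4 h at 30 °C. Rates at 3–4 h gave % inhibition and IC50.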

M-NFS-60 cells = test: M-NFS-60 cell proliferation assay (resazurin); format: cell-based; conditions: 67 h incubation
Summary of the method: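 Cells kept in medium containing 20 ng/mL mouse recombinant M-CSF. Fluorescence was read at ex 540/em 600 nm, and IC50 was fitted from percent inhibition across a range of inhibitor concentrations.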

[4] = enzymatic assay, ATP 500 μM, read-out: uFMS

Row | SMILES | IC50 [1] [nM] | IC50 (osteoclast precursors) [nM] | IC50 [2, 4] [nM] | IC50 [3] [nM] | IC50 (M-NFS-60 cells) [nM] | IC50 ([2]; Table 4, read-out: c-FMS IC50) [nM]
1 | Cn1cc(-c2cc(Oc3ccc(NC(=O)N4CCN(C5CCOC5)C4=O)nc3)ccn2)cn1 (stereo in doubt) [Example 12, (S)—N-(5-((2-(1-methyl-1H-pyrazol-4-yl)pyridin-4-yl)oxy)pyridin-2-yl)-2-oxo-3-(tetrahydrofuran-3-yl)imidazolidine-1-carboxamide] | 10 to 100 | < 10 | 10 to 100 | 10 to 100 | 10 to 100 | 
2 | Cn1cc(-c2cc(Oc3ccc(NC(=O)N4CCN(C5CCOCC5)C4=O)nc3)ccn2)cn1 [Example 1, N-(5-((2-(1-methyl-1H-pyrazol-4-yl)pyridin-4-yl)oxy)pyridin-2-yl)-2-oxo-3-(tetrahydro-2H-pyran-4-yl)imidazolidine-1-carboxamide] | 10 to 100 | 10 to 100 | < 10 | 10 to 100 | 10 to 100 | 6
3 | COCCN1CCN(C(=O)Nc2ccc(Oc3ccnc(-c4cnn(C)c4)c3)cn2)C1=O [Example 10, 3-(2-methoxyethyl)-N-(5-((2-(1-methyl-11H-pyrazol-4-yl)pyridin-4-yl)oxy)pyridin-2-yl)-2-oxoimidazolidine-1-carboxamide] | < 10 | 10 to 100 | 10 to 100 | 100 to 1000 | 10 to 100 | 
4 | COCCCN1CCN(C(=O)Nc2ccc(Oc3ccnc(-c4cnn(C)c4)c3)cn2)C1=O [Example 11, 3-(3-methoxypropyl)-N-(5-((2-(1-methyl-1H-pyrazol-4-yl)pyridin-4-yl)oxy)pyridin-2-yl)-2-oxoimidazolidine-1-carboxamide] | 10 to 100 | < 10 | 10 to 100 | 10 to 100 | 10 to 100 | 
5 | COCCN1CCN(C(=O)Nc2ccc(Oc3ccnc(-c4cnn(C)c4)c3)c(C)n2)C1=O [Example 18, 3-(2-methoxyethyl)-N-(6-methyl-5-((2-(1-methyl-1H-pyrazol-4-yl)pyridin-4-yl)oxy)pyridin-2-yl)-2-oxoimidazolidine-1-carboxamide] | 10 to 100 | 10 to 100 | 10 to 100 | 100 to 1000 | 100 to 1000 | 20
6 | Cc1nc(NC(=O)N2CCN(C3COC3)C2=O)ccc1Oc1ccnc(-c2cnn(C)c2)c1 [Example 20, N-(6-methyl-5-((2-(1-methyl-1H-pyrazol-4-yl)pyridin-4-yl)oxy)pyridin-2-yl)-3-(oxetan-3-yl)-2-oxoimidazolidine-1-carboxamide] | 10 to 100 | 10 to 100 | 10 to 100 | 100 to 1000 | 10 to 100 | 
7 | Cn1cc(-c2cc(Oc3ccc(NC(=O)N4CCN(CCOC(F)(F)F)C4=O)nc3)ccn2)cn1 [Example 21, N-(5-((2-(1-methyl-1H-pyrazol-4-yl)pyridin-4-yl)oxy)pyridin-2-yl)-2-oxo-3-(2-(trifluoromethoxy)ethyl)imidazolidine-1-carboxamide] | 10 to 100 | 10 to 100 | 10 to 100 | 10 to 100 | 10 to 100 | 
8 | Cc1nc(NC(=O)N2CCN(C3CCCCC3)C2=O)ccc1Oc1ccnc(-c2cnn(C)c2)c1 [Example 22, 3-cyclohexyl-N-(6-methyl-5-((2-(1-methyl-1H-pyrazol-4-yl)pyridin-4-yl)oxy)pyridin-2-yl)-2-oxoimidazolidine-1-carboxamide] | 10 to 100 | < 10 | < 10 | 10 to 100 | < 10 | 
9 | Cc1nc(NC(=O)N2CCN(C3CCC(F)(F)CC3)C2=O)ccc1Oc1ccnc(-c2cnn(C)c2)c1 [Example 26, 3-(4,4-difluorocyclohexyl)-N-(6-methyl-5-((2-(1-methyl-1H-pyrazol-4-yl)pyridin-4-yl)oxy)pyridin-2-yl)-2-oxoimidazolidine-1-carboxamide] | 10 to 100 | 10 to 100 | < 10 | 10 to 100 | < 10 | 
10 | Cc1nc(NC(=O)N2CCN(C3CCCC3)C2=O)ccc1Oc1ccnc(-c2cnn(C)c2)c1 [Example 29, 3-cyclopentyl-N-(6-methyl-5-((2-(1-methyl-1H-pyrazol-4-yl)pyridin-4-yl)oxy)pyridin-2-yl)-2-oxoimidazolidine-1-carboxamide] | 10 to 100 | < 10 | < 10 | < 10 | < 10 | 2
11 | Cn1cc(-c2cc(Oc3ccc(NC(=O)N4CCN(C(C)(C)C)C4=O)nc3)ccn2)cn1 [Example 34, 3-(tert-butyl)-N-(5-((2-(1-methyl-1H-pyrazol-4-yl)pyridin-4-yl)oxy)pyridin-2-yl)-2-oxoimidazolidine-1-carboxamide] | < 10 | 10 to 100 | < 10 | < 10 | 10 to 100 | 

Further lines, with some results ahead:

Row | IC50 [1] [nM] | IC50 (osteoclast precursors) [nM] | IC50 [2, 4] [nM] | IC50 [3] [nM] | SMILES | IC50 (M-NFS-60 cells) [nM] | IC50 ([2]; Table 4, read-out: c-FMS IC50) [nM]
12 | 10 to 100 | 10 to 100 | < 10 | 100 to 1000 | Cc1nc(NC(=O)N2CCN(C3CCOCC3)C2=O)ccc1Oc1ccnc(-c2cnn(C)c2)c1 [Example 3, N-(6-methyl-5-((2-(1-methyl-1H-pyrazol-4-yl)pyridin-4-yl)oxy)pyridin-2-yl)-2-oxo-3-(tetrahydro-2H-pyran-4-yl)imidazolidine-1-carboxamide] | 10 to 100 | 
13 | < 10 | 10 to 100 | 10 to 100 | 10 to 100 | CCn1cc(-c2cc(Oc3ccc(NC(=O)N4CCN(C5CCOCC5)C4=O)nc3)ccn2)cn1 [Example 4, N-(5-((2-(1-ethyl-1H-pyrazol-4-yl)pyridin-4-yl)oxy)pyridin-2-yl)-2-oxo-3-(tetrahydro-2H-pyran-4-yl)imidazolidine-1-carboxamide] | 10 to 100 | 
14 | 10 to 100 | 10 to 100 | 10 to 100 | 10 to 100 | Cc1cc(-c2cc(Oc3ccc(NC(=O)N4CCN(C5CCOCC5)C4=O)nc3)ccn2)on1 [Example 7, N-(5-((2-(3-methylisoxazol-5-yl)pyridin-4-yl)oxy)pyridin-2-yl)-2-oxo-3-(tetrahydro-2H-pyran-4-yl)imidazolidine-1-carboxamide] | 10 to 100 | 
15 | 10 to 100 | < 10 | < 10 | < 10 | COC[C@H](C)N1CCN(C(=O)Nc2ccc(Oc3ccnc(-c4cnn(C)c4)c3)cn2)C1=O [Example 16, (S)-3-(1-methoxypropan-2-yl)-N-(5-((2-(1-methyl-11H-pyrazol-4-yl)pyridin-4-yl)oxy)pyridin-2-yl)-2-oxoimidazolidine-1-carboxamide] | 10 to 100 | 
16 | 10 to 100 | 10 to 100 | 10 to 100 | 10 to 100 | COCCCN1CCN(C(=O)Nc2ccc(Oc3ccnc(-c4cnn(C)c4)c3)c(C)n2)C1=O [Example 19, 3-(3-methoxypropyl)-N-(6-methyl-5-((2-(1-methyl-1H-pyrazol-4-yl)pyridin-4-yl)oxy)pyridin-2-yl)-2-oxoimidazolidine-1-carboxamide] | 10 to 100 | 
17 | 10 to 100 | < 10 | < 10 | < 10 | Cn1cc(-c2cc(Oc3ccc(NC(=O)N4CCN(C5CCC(F)(F)CC5)C4=O)nc3)ccn2)cn1 [Example 25, 3-(4,4-difluorocyclohexyl)-N-(5-((2-(1-methyl-1H-pyrazol-4-yl)pyridin-4-yl)oxy)pyridin-2-yl)-2-oxoimidazolidine-1-carboxamide] | < 10 | 
18 | < 10 | 10 to 100 | < 10 | < 10 | Cc1nc(NC(=O)N2CCN(C(C)(C)C)C2=O)ccc1Oc1ccnc(-c2cnn(C)c2)c1 [Example 33, 3-(tert-butyl)-N-(6-methyl-5-((2-(1-methyl-1H-pyrazol-4-yl)pyridin-4-yl)oxy)pyridin-2-yl)-2-oxoimidazolidine-1-carboxamide] | 10 to 100 | 
19 | < 10 | < 10 | < 10 | 100 to 1000 | Cc1nc(NC(=O)N2CCN(C(C)C)C2=O)ccc1Oc1ccnc(-c2cnn(C)c2)c1 [Example 35, 3-isopropyl-N-(6-methyl-5-((2-(1-methyl-1H-pyrazol-4-yl)pyridin-4-yl)oxy)pyridin-2-yl)-2-oxoimidazolidine-1-carboxamide] | 10 to 100 | 
